# Test results as given in ChEMBL document CHEMBL1150032, “-hydroxy- and -ketoester functionalized thrombin inhibitors” (Bioorg Med Chem Lett, 1992).
# Columns and labels:
# [1] = Inhibitory concentration required to double thrombin clotting time; assay type: functional, Homo sapiens
# Prothrombin [2] = biological target: T1, Prothrombin (Homo sapiens, UniProt P00734); assay: Inhibitory concentration against thrombin when incubated with the compound for 3 min
# [3] = Inhibitory concentration required to double thrombin clotting time in batch 1; assay type: functional, Homo sapiens
# [4] = Inhibitory concentration required to double thrombin clotting time in batch 2; assay type: functional, Homo sapiens
# Prothrombin [5] = biological target: T1, Prothrombin; assay: Inhibitory concentration against thrombin when incubated with the compound for 3 min in batch 1
# Prothrombin [6] = biological target: T1, Prothrombin; assay: Inhibitory concentration against thrombin when incubated with the compound for 3 min in batch 2
# Prothrombin [7] = biological target: T1, Prothrombin; assay: Overall Inhibitory constant against thrombin was determined
IC50 [1],IC50 (Prothrombin [2]),IC50 [3],IC50 [4],IC50 (Prothrombin [5]),IC50 (Prothrombin [6]),Ki (Prothrombin [7]),SMILES
400 nM,49 nM,–,–,–,–,–,NC(N)=NCCC[C@@H](C=O)NC(=O)[C@@H]1CCCN1C(=O)[C@H](N)Cc1ccccc1
–,–,> 300000 nM,> 300000 nM,30500 nM,20200 nM,–,COC(=O)[C@@H](O)[C@H](CCCCN)NC(=O)[C@@H]1CCCN1C(=O)[C@H](N)Cc1ccccc1
–,48000 nM,–,–,–,–,–,COC(=O)C(O)[C@H](CCCCN=C(N)N)NC(=O)[C@@H]1CCCN1C(=O)[C@H](N)Cc1ccccc1 (stereo not given in full)
390 nM,32 nM,–,–,–,–,1.7 nM,COC(=O)C(O)(OC)C(CCCCN)NC(=O)[C@@H]1CCCN1C(=O)[C@H](N)Cc1ccccc1 (stereo not given in full)
